From patent US20240270741A1 (Cogent Biosciences, Inc., priority 2023, published 2024)

Target: FGFR2 (Homo sapiens, UniProt P21802)
Assay: FGFR wild type enzyme assay (HTRF KinEASE-TK), FGFR2
Details: Enz FGFR2 (nM), FGFR2 wild type enzyme

Sequence of FGFR2 (P21802 399-821 limits assumed): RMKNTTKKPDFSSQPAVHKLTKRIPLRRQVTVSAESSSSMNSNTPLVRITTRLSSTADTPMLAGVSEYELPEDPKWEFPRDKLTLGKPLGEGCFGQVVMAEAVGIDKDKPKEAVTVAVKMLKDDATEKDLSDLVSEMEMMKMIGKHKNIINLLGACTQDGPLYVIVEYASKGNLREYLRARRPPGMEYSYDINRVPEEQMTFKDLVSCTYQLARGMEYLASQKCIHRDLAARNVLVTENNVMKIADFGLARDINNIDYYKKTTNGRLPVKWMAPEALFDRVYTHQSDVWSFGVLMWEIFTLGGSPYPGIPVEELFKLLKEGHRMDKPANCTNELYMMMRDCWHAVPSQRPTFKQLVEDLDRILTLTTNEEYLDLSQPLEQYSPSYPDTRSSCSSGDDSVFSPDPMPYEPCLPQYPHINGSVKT

| SMILES | IC50 |
| --- | --- |
| Cc1c(-c2cc(Sc3ncccc3F)c3c(C#N)cnn3c2)cnn1[C@H]1CC[C@@H](N(C)S(C)(=O)=O)CC1 [Example 249, N-((1s,4s)-4-(4-(3-cyano-4-((3-fluoropyridin-2-yl)thio)pyrazolo[1,5-a]pyridin-6-yl)-5-methyl-1H-pyrazol-1-yl)cyclohexyl)-N-methylmethanesulfonamide] | 3 nM |
| CCN[C@H]1CC[C@@H](n2ncc(-c3cc(Sc4ccccc4C#N)c4c(C#N)cnn4c3)c2C)CC1 [Example 250, 4-((2-cyanophenyl)thio)-6-(1-((1s,4s)-4-(ethylamino)cylcohexyl)-5-methyl-1H-pyrazol-4-yl)pyrazolo[1,5-a]pyridine-3-carbonitrile] | 0.4 nM |
| Cc1c(-c2cc(Sc3ccccc3C#N)c3c(C#N)cnn3c2)cnn1[C@H]1CC[C@@H](NC(C)C)CC1 [Example 251] | 0.5 nM |
| Cc1c(-c2cc(Sc3ncccc3F)c3c(C#N)cnn3c2)cnn1C1CCNC(C)C1 (centres unmarked) [Example 252, 4-((3-fluoropyridin-2-yl)thio)-6-(5-methyl-1-(2-methylpiperidin-4-yl)-1H-pyrazol-4-yl)pyrazolo[1,5-a]pyridine-3-carbonitrile] | 1 nM |
| Cc1c(-c2cc(Sc3ncccc3F)c3c(C#N)cnn3c2)cnn1[C@H]1CC[C@@H](NCC2(C)CC2)CC1 [Example 253, 4-((3-fluoropyridin-2-yl)thio)-6-(5-methyl-1-((1s,4s)-4-(((1-methylcyclopropyl)methyl)amino)cyclohexyl)-1H-pyrazol-4-yl)pyrazolo[1,5-a]pyridine-3-carbonitrile] | 0.6 nM |
| Cc1c(-c2cc(Sc3ncccc3F)c3c(C#N)cnn3c2)cnn1[C@H]1CC[C@@H](N(C)C(=O)C(C)(C)N)CC1 [Example 254, 2-amino-N-((1s,4s)-4-(4-(3-cyano-4-((3-fluoropyridin-2-yl)thio)pyrazolo[1,5-a]pyridin-6-yl)-5-methyl-1H-pyrazol-1-y)cyclohexyl)-N,2-dimethylpropanamide] | 1 nM |
| CN[C@H]1CC[C@@H](n2ncc(-c3cc(Sc4ccc(F)cc4C#N)c4c(C#N)cnn4c3)c2C)CC1 [Example 255, 4-((2-cyano-4-fluorophenyl)thio)-6-(5-methyl-1-((1s,4s)-4-(methylamino)cyclohexyl)-1H-pyrazol-4-yl)pyrazolo[1,5-a]pyridine-3-carbonitrile] | 0.3 nM |
| CCN(C)[C@H]1CC[C@@H](n2ncc(-c3cc(Sc4ccccc4C#N)c4c(C#N)cnn4c3)c2C)CC1 [Example 256, 4-((2-cyanophenyl)thio)-6-(1-((1s,4s)-4-(ethyl(methyl)amino)cyclo-hexyl)-5-methyl-1H-pyrazol-4-yl)pyrazolo[1,5-a]pyridine-3-carbonitrile] | 1 nM |
| Cc1c(-c2cc(Sc3ccccc3C#N)c3c(C#N)cnn3c2)cnn1[C@H]1CC[C@@H](NCC2(C)CC2)CC1 [Example 257, 4-((2-cyanophenyl)thio)-6-(5-methyl-1-((1s,4s)-4-(((1-methylcyclopropyl)methyl)amino)cyclohexyl)-1H-pyrazol-4-yl)pyrazolo[1,5-a]pyridine-3-carbonitrile] | 0.5 nM |
| N#Cc1ccccc1Sc1cc(-c2cnn(CC(F)(F)F)c2)cn2ncc(C#N)c12 [Example 258] | 2 nM |
| CC(=O)N1C[C@H]2C[C@@H](n3ncc(-c4cc(Sc5ncccc5F)c5c(C#N)cnn5c4)c3C)C[C@H]2C1 [Example 259, 6-(1-((3aR,5r,6aS)-2-acetyloctahydrocyclopenta [c]pyrrol-5-yl)-5-methyl-1H-pyrazol-4-yl)-4-((3-fluoropyridin-2-yl)thio)pyrazolo[1,5-a]pyridine-3-carbonitrile] | 1.5 nM |
| Cc1c(-c2cc(Sc3ccccc3C#N)c3c(C#N)cnn3c2)cnn1[C@H]1CC[C@@](C)(O)CC1 [Example 260, 4-(2-cyanophenyl)sulfanyl-6-[1-(4-hydroxy-4-methyl-cyclohexyl)-5-methyl-pyrazol-4-yl]pyrazolo[1,5-a]pyridine-3-carbonitrile] | 1 nM |
| Cc1c(-c2cc(Sc3ccccc3C#N)c3c(C#N)cnn3c2)cnn1[C@H]1CC[C@](C)(O)CC1 [Example 261, 4-((2-cyanophenyl)thio)-6-(1-((1r,4r)-4-hydroxy-4-methylcyclohexyl)-5-methyl-1H-pyrazol-4-yl)pyrazolo[1,5-a]pyridine-3-carbonitrile] | 0.5 nM |

Further lines, results first:

| IC50 | SMILES |
| --- | --- |
| 3 nM | CC(=O)N1[C@@H]2CC[C@H]1C[C@@H](n1ncc(-c3cc(Sc4ncccc4F)c4c(C#N)cnn4c3)c1C)C2 [Example 262, 6-(1-((1R,3r,5S)-8-acetyl-8-azabicyclo[3.2.1]octan-3-yl)-5-methyl-1H-pyrazol-4-yl)-4-((3-fluoropyridin-2-yl)thio)pyrazolo[1,5-a]pyridine-3-carbonitrile] |
| 3 nM | CC(=O)N1[C@@H]2CC[C@H]1C[C@H](n1ncc(-c3cc(Sc4ncccc4F)c4c(C#N)cnn4c3)c1C)C2 [Example 263, 6-(1-((1R,3s,5S)-8-acetyl-8-azabicyclo[3.2.1]octan-3-yl)-5-methyl-1H-pyrazol-4-yl)-4-((3-fluoropyridin-2-yl)thio)pyrazolo[1,5-a]pyridine-3-carbonitrile] |
| 1 nM | Cc1c(-c2cc(Sc3ccccc3C#N)c3c(C#N)cnn3c2)cnn1[C@H]1C[C@H]2CC[C@@H](C1)N2C [Example 264, 4-((2-cyanophenyl)thio)-6-(5-methyl-1-((1R,3r,5S)-8-methyl-8-azabicyclo[3.2.1]octan-3-yl)-1H-pyrazol-4-yl)pyrazolo[1,5-a]pyridine-3-carbonitrile] |
| 0.4 nM | Cc1c(-c2cc(Sc3ccccc3C#N)c3c(C#N)cnn3c2)cnn1[C@@H]1C[C@H]2CC[C@@H](C1)N2C [Example 265, 4-((2-cyanophenyl)thio)-6-(5-methyl-1-((1R,3s,5S)-8-methyl-8-azabicyclo[3.2.1]octan-3-yl)-1H-pyrazol-4-yl)pyrazolo[1,5-a]pyridine-3-carbonitrile] |
| 0.5 nM | Cc1c(-c2cc(Sc3ccccc3C#N)c3c(C#N)cnn3c2)cnn1C1CCN(CC(=O)N(C)C)CC1 [Example 266, 2-(4-(4-(3-cyano-4-((2-cyanophenyl)thio)pyrazolo [1,5-a]pyridin-6-yl)-5-methyl-1H-pyrazol-1-yl)piperidin-1-yl)-N,N-dimethylacetamide] |
| 0.6 nM | Cc1c(-c2cc(Sc3ccccc3C#N)c3c(C#N)cnn3c2)cnn1C1CCN(Cc2ccccn2)CC1 [Example 267, 4-((2-cyanophenyl)thio)-6-(5-methyl-1-(1-(pyridin-2-ylmethyl)piperidin-4-yl)-1H-pyrazol-4-yl)pyrazolo[1,5-a]pyridine-3-carbonitrile] |
| 0.4 nM | Cc1c(-c2cc(Sc3ccccc3C#N)c3c(C#N)cnn3c2)cnn1[C@H]1CC[C@@H](NC(=O)C(C)(C)O)CC1 [Example 268, N-((1s,4s)-4-(4-(3-cyano-4-((2-cyanophenyl)thio)pyrazolo [1,5-a]pyridin-6-yl)-5-methyl-1H-pyrazol-1-yl)cyclohexyl)-2-hydroxy-2-methylpropanamide] |
| 1 nM | Cc1c(-c2cc(Sc3ncccc3F)c3c(C#N)cnn3c2)cnn1[C@H]1CC[C@@H](NCC(=O)N(C)C)CC1 [Example 269, 2-(((1s,4s)-4-(4-(3-cyano-4-((3-fluoropyridin-2-yl)thio)pyrazolo[1,5-a]pyridin-6-yl)-5-methyl-1H-pyrazol-1-yl)cyclohexyl)amino)-N,N-dimethylacetamide] |
| 0.7 nM | Cc1c(-c2cc(Sc3ncccc3F)c3c(C#N)cnn3c2)cnn1[C@H]1CC[C@@H](NCc2ccccn2)CC1 [Example 270, 4-((3-fluoropyridin-2-yl)thio)-6-(5-methyl-1-((1s,4s)-4-((pyridin-2-ylmethyl)amino)cyclohex-yl)-1H-pyrazol-4-yl)pyrazolo[1,5-a]pyridine-3-carbonitrile] |
| 1 nM | Cc1c(-c2cc(Sc3ncccc3F)c3c(C#N)cnn3c2)cnn1[C@H]1CC[C@@H](NC(=O)C(C)(C)O)CC1 [Example 271, N-((1s,4s)-4-(4-(3-cyano-4-((3-fluoropyridin-2-yl)thio)pyrazolo[1,5-a]pyridin-6-yl)-5-methyl-1H-pyrazol-1-yl)cyclohexyl)-2-hydroxy-2-methylpropanamide] |
| 1 nM | CC(=O)N[C@H]1CC[C@H](n2ncc(-c3cc(Sc4ccccc4C#N)c4c(C#N)cnn4c3)c2C)CC1 [Example 272, N-((1r,4r)-4-(4-(3-cyano-4-((2-cyanophenyl)thio)pyrazolo [1,5-a]pyridin-6-yl)-5-methyl-1H-pyrazol-1-yl)cyclohexyl)acetamide] |
| 0.5 nM | CC(=O)N[C@H]1CC[C@@H](n2ncc(-c3cc(Sc4ccccc4C#N)c4c(C#N)cnn4c3)c2C)CC1 [Example 273, N-((1s,4s)-4-(4-(3-cyano-4-((2-cyanophenyl)thio)pyrazolo [1,5-a]pyridin-6-yl)-5-methyl-1H-pyrazol-1-yl)cyclohexyl)acetamide] |
| 1 nM | CC(=O)N[C@H]1CC[C@H](n2ncc(-c3cc(Sc4ccc(F)cc4C#N)c4c(C#N)cnn4c3)c2C)CC1 [Example 274, N-((1r,4r)-4-(4-(3-cyano-4-((2-cyano-4-fluorophenyl)thio)pyrazolo [1,5-a]pyridin-6-yl)-5-methyl-1H-pyrazol-1-yl)cyclohexyl)acetamide] |
| 1 nM | Cc1c(-c2cc(Sc3ccc(F)cc3C#N)c3c(C#N)cnn3c2)cnn1[C@H]1CC[C@H](O)CC1 [Example 275, 4-(2-cyano-4-fluoro-phenyl)sulfanyl-6-[1-(4-hydroxycyclohexyl)-5-methyl-pyrazol-4-yl]pyrazolo[1,5-a]pyridine-3-carbonitrile] |
| 3 nM | Cc1c(-c2cc(Sc3ncccc3F)c3c(C#N)cnn3c2)cnn1[C@H]1CCNC[C@@H]1O [Example 276, 4-[(3-fluoro-2-pyridyl)sulfanyl]-6-[1-[(3S,4S)-3-hydroxy-4-piperidyl]-5-methylpyrazol-4-yl]pyrazolo[1,5-a]pyridine-3-carbonitrile] |
| 15 nM | Cc1c(-c2cc(Sc3ncccc3F)c3c(C#N)cnn3c2)cnn1[C@@H]1CCNC[C@H]1O [Example 277, 4-((3-fluoropyridin-2-yl)thio)-6-(1-((3R,4R)-3-hydroxypiperidin-4-yl)-5-methyl-1H-pyrazol-4-yl)pyrazolo[1,5-a]pyridine-3-carbonitrile] |
